Assay results from patent publication US11116735B2, “Use of substituted benzylideneguanidine derivatives as synergists for polymyxin antibiotics” (GUANGZHOU INSIGHTER BIOTECHNOLOGY CO., LTD., priority 2015, dated 2021).

Legend:
[1] = system: E. coli 2S-19; test: MIC by doubling dilution, colistin sulfate-susceptible E. coli 2S-19; format: cell-based, Escherichia coli
[2] = system: P. aeruginosa E543; test: MIC, resistance reversal by various concentrations of compound 3, P. aeruginosa E543
Description: (§2) The compound 3 in this embodiment was in the form of a hydrochloride, i.e., the experiments were carried out with a hydrochloride of compound 3.
(§3) In vitro minimum inhibitory concentrations of colistin sulfate against the strains where the cultures respectively comprised various concentrations of compound 3 were also measured.

[3] = system: fast-growing yellow feather broilers; test: Combined application of compound 3 and colistin sulfate in chicken feed; format: in vivo; details: 28-day experiment; for Average daily weight gain / Feed conversion ratio / Survival rate: broilers
Description: (§1) 800 1-day-aged fast-growing yellow feather broilers were divided into 4 groups, 4 parallels in each group and 50 broilers in each parallel. For each group, colistin sulfate and/or compound 3 were added into the feed. The chicken were kept in cages and given ad libitum access to feed and water during a 28-day experiment. Synergy of compound 3 and colistin sulfate on the chicken in the weight gain and feed efficiency was observed from the result (see Table 10).

[4] = system: E. coli 3Y-9; test: MIC by doubling dilution, colistin sulfate-susceptible E. coli 3Y-9; format: cell-based, Escherichia coli
[5] = system: various colistin sulfate-resistant Gram-negative bacteria; test: MIC by doubling dilution, summary over resistant species; details: compound 3 alone (hydrochloride)
Description: as §2, §3

[6] = system: weanling piglets; test: Compound 3 in various dosages and colistin sulfate in the feed for weanling piglets; format: in vivo, Duroc×Landrace×Large crossbred lean weanling piglets; details: for Average daily weight gain / Diarrhea rate / Feed conversion ratio: ten days
Description: 90 28-day-aged Duroc×Landrace×Large crossbred lean weanling piglets similar in weight were divided into 9 groups, 10 piglets in each group. For each group, colistin sulfate and/or various dosages of compound 3 were added into the antibiotic-free creep feed. The piglets were given ad libitum access to feed and water during the experiment. Weight gain, feed efficiency and diarrhea rate of each group within ten days were recorded.

[7] = system: E. coli 5F-1; test: MIC by doubling dilution, colistin sulfate-resistant E. coli 5F-1
Description: (§4) In vitro minimum inhibitory concentrations of colistin sulfate against the strains where the cultures respectively comprised 20.0 ppm of the substituted benzylideneguanidine derivatives were also measured.

[8] = system: Klebsiella sp. 4125; test: MIC, resistance reversal by various concentrations of compound 3, Klebsiella sp. 4125
Description: as §2, §3

[9] = system: Salmonella sp. 3087; test: MIC, resistance reversal by various concentrations of compound 3, Salmonella sp. 3087
Description: as §2, §3

[10] = system: cherry valley ducks; test: Combined application of compound 3 and colistin sulfate in duck feed; format: in vivo; details: 21-day experiment
Description: as §1, with “cherry valley ducks” for “fast-growing yellow feather broilers”, “groups according to Table 10,” for “groups,”, “ducks” for “broilers”, “ducks” for “chicken”, “21-day” for “28-day”, “11).” for “10).”

[11] = system: E. coli 5W-7; test: MIC by doubling dilution, colistin sulfate-susceptible E. coli 5W-7; format: cell-based, Escherichia coli
[12] = system: E. coli 3H-4; test: MIC by doubling dilution, colistin sulfate-resistant E. coli 3H-4
Description: as §4

[13] = system: E. coli 2G-7; test: MIC by doubling dilution, colistin sulfate-resistant E. coli 2G-7
Description: as §4

[14] = system: E. coli 4D-6; test: MIC by doubling dilution, colistin sulfate-resistant E. coli 4D-6
Description: as §4

[15] = system: E. coli 5F-1; test: MIC, resistance reversal by various concentrations of compound 3, E. coli 5F-1
Description: as §2, §3

[16] = system: E. coli 3B-24; test: MIC by doubling dilution, colistin sulfate-susceptible E. coli 3B-24; format: cell-based, Escherichia coli
[17] = colistin sulfate with 0 ppm compound 3, or compound 3 (hydrochloride) in the absence of colistin sulfate
[18] = 20 ppm colistin sulfate and 50 ppm compound 3 in feed (Test)
[19] = 20 ppm colistin sulfate + 10 ppm compound 3 in creep feed (Test 1)
[20] = 20 ppm colistin sulfate + 25 ppm compound 3 in creep feed (Test 2)
[21] = 20 ppm colistin sulfate + 50 ppm compound 3 in creep feed (Test 3)
[22] = 20 ppm colistin sulfate + 100 ppm compound 3 in creep feed (Test 4)
[23] = 20 ppm colistin sulfate + 200 ppm compound 3 in creep feed (Test 5)
[24] = 20 ppm colistin sulfate + 500 ppm compound 3 in creep feed (Test 6)
[25] = only 200 ppm compound 3 in creep feed, no colistin sulfate

For `CC(C)Oc1ccc(C=NN=C(N)NN=Cc2ccc(OC(C)C)cc2)cc1` [Compound 3], which “In vitro minimum inhibitory concentration (MIC) of the substance alone” value ([1]; E. coli 2S-19, colistin sulfate-susceptible, substance alone, derivatives as hydrochlorides) is on record?
Its value is greater than 800 ppm.

What about the “In vitro MIC of colistin sulfate in the presence of the substituted benzylideneguanidine derivative” value ([1]; E. coli 2S-19, culture comprised 20.0 ppm of the derivative (hydrochloride), colistin sulfate serially diluted) of the same molecule?
The value was 0.50 ppm.

And the “In vitro MIC of colistin sulfate in the presence of compound 3” value (“In vitro MIC … of compound 3” below) ([2]; 5 ppm compound 3)?
Its value is 32.00 ppm.

What about the “In vitro MIC … of compound 3” value ([2]; 10 ppm compound 3) of the same molecule?
Its value is 8.00 ppm.

And the “In vitro MIC … of compound 3” value ([2]; 20 ppm compound 3)?
The value was 2.00 ppm.

And the “In vitro MIC … of compound 3” value ([2]; 40 ppm compound 3)?
Its value is 0.50 ppm.

And the “In vitro MIC … of compound 3” value ([2]; 80 ppm compound 3)?
The value was 0.50 ppm.

And the “In vitro MIC of the substance alone” value [2, 17]?
Its value is greater than 800 ppm.

And the “Average daily weight gain” value [3, 18]?
Its value is 44.6 g.

What about the Feed conversion ratio [3, 18] of the same molecule?
Its Feed conversion ratio is 1.855.

What about the Survival rate [3, 18] of the same molecule?
Its Survival rate is 100%.

What about the “Average daily weight gain” value ([3]; 100 ppm compound 3 in feed) of the same molecule?
Its value is 40.2 g.

And the Feed conversion ratio ([3]; 100 ppm compound 3 in feed)?
The Feed conversion ratio was 1.943.

What about the Survival rate ([3]; 100 ppm compound 3 in feed) of the same molecule?
Its Survival rate is 100%.

What about the “Synergy with colistin sulfate in weight gain and feed efficiency” value ([3]; chicken) of the same molecule?
Its value is “Synergy”.

What about the “In vitro minimum inhibitory concentration (MIC) of the substance alone” value ([4]; E. coli 3Y-9, colistin sulfate-susceptible, substance alone, derivatives as hydrochlorides) of the same molecule?
The value was greater than 800 ppm.

And the “In vitro MIC of colistin sulfate in the presence of the substituted benzylideneguanidine derivative” value ([4]; E. coli 3Y-9, culture comprised 20.0 ppm of the derivative (hydrochloride), colistin sulfate serially diluted)?
The value was 0.50 ppm.

What about the “Inhibitory activity on the tested strains” value [5] of the same molecule?
Its value is “did not exhibit inhibitory activity”.

And the “Average daily weight gain” value [6, 19]?
Its value is 215 g.

What about the Diarrhea rate [6, 19] of the same molecule?
The Diarrhea rate was 30%.

And the Feed conversion ratio [6, 19]?
The Feed conversion ratio was 1.632.

What about the “Average daily weight gain” value [6, 20] of the same molecule?
The value was 226 g.

And the Diarrhea rate [6, 20]?
The Diarrhea rate was 26%.

And the Feed conversion ratio [6, 20]?
The Feed conversion ratio was 1.578.

And the “Average daily weight gain” value [6, 21]?
Its value is 237 g.

What about the Diarrhea rate [6, 21] of the same molecule?
The Diarrhea rate was 20%.

And the Feed conversion ratio [6, 21]?
The Feed conversion ratio was 1.532.

What about the “Average daily weight gain” value [6, 22] of the same molecule?
The value was 248 g.

And the Diarrhea rate [6, 22]?
The Diarrhea rate was 16%.

And the Feed conversion ratio [6, 22]?
The Feed conversion ratio was 1.499.

What about the “Average daily weight gain” value [6, 23] of the same molecule?
Its value is 255 g.

What about the Diarrhea rate [6, 23] of the same molecule?
The Diarrhea rate was 6%.

What about the Feed conversion ratio [6, 23] of the same molecule?
The Feed conversion ratio was 1.417.

And the “Average daily weight gain” value [6, 24]?
Its value is 259 g.

What about the Diarrhea rate [6, 24] of the same molecule?
The Diarrhea rate was 3%.

And the Feed conversion ratio [6, 24]?
The Feed conversion ratio was 1.428.

And the “Dosage dependence of diarrhea rate and productivity” value ([6]; colistin sulfate added together with compound 3, weanling piglets)?
Its value is “a higher dosage of compound 3 led to a better effect”.

What about the “Average daily weight gain” value [6, 25] of the same molecule?
The value was 228 g.

What about the Diarrhea rate [6, 25] of the same molecule?
The Diarrhea rate was 29%.

What about the Feed conversion ratio [6, 25] of the same molecule?
The Feed conversion ratio was 1.596.

What about the “In vitro minimum inhibitory concentration (MIC) of the substance alone” value ([7]; E. coli 5F-1, colistin sulfate-resistant, substance alone, derivatives as hydrochlorides) of the same molecule?
Its value is greater than 800 ppm.

What about the “In vitro MIC of colistin sulfate in the presence of the substituted benzylideneguanidine derivative” value ([7]; E. coli 5F-1, resistant, culture comprised 20.0 ppm of the derivative (hydrochloride)) of the same molecule?
The value was 1.0 ppm.

What about the “In vitro MIC … of compound 3” value ([8]; 5 ppm compound 3) of the same molecule?
The value was 32.00 ppm.

And the “In vitro MIC … of compound 3” value ([8]; 10 ppm compound 3)?
The value was 8.00 ppm.

And the “In vitro MIC … of compound 3” value ([8]; 20 ppm compound 3)?
Its value is 2.00 ppm.

And the “In vitro MIC … of compound 3” value ([8]; 40 ppm compound 3)?
Its value is 1.00 ppm.

And the “In vitro MIC … of compound 3” value ([8]; 80 ppm compound 3)?
The value was 1.00 ppm.

And the “In vitro MIC of the substance alone” value [8, 17]?
Its value is greater than 800 ppm.

What about the “In vitro MIC … of compound 3” value ([9]; 5 ppm compound 3) of the same molecule?
The value was 64.00 ppm.

And the “In vitro MIC … of compound 3” value ([9]; 10 ppm compound 3)?
The value was 16.00 ppm.

And the “In vitro MIC … of compound 3” value ([9]; 20 ppm compound 3)?
The value was 4.00 ppm.

And the “In vitro MIC … of compound 3” value ([9]; 40 ppm compound 3)?
Its value is 2.00 ppm.

And the “In vitro MIC … of compound 3” value ([9]; 80 ppm compound 3)?
The value was 1.00 ppm.

And the “In vitro MIC of the substance alone” value [9, 17]?
The value was greater than 800 ppm.

What about the “Average daily weight gain” value [10, 18] of the same molecule?
The value was 55.6 g.

What about the Feed conversion ratio [10, 18] of the same molecule?
The Feed conversion ratio was 1.817.

What about the Survival rate [10, 18] of the same molecule?
Its Survival rate is 100%.

What about the “Synergy with colistin sulfate in weight gain and feed efficiency” value [10] of the same molecule?
The value was “Synergy”.

And the “Average daily weight gain” value ([10]; 100 ppm compound 3 in feed)?
Its value is 50.5 g.

And the Feed conversion ratio ([10]; 100 ppm compound 3 in feed)?
Its Feed conversion ratio is 1.926.

And the Survival rate ([10]; 100 ppm compound 3 in feed)?
The Survival rate was 100%.

And the “In vitro minimum inhibitory concentration (MIC) of the substance alone” value ([11]; E. coli 5W-7, colistin sulfate-susceptible, substance alone, derivatives as hydrochlorides)?
Its value is greater than 800 ppm.

And the “In vitro MIC of colistin sulfate in the presence of the substituted benzylideneguanidine derivative” value ([11]; E. coli 5W-7, culture comprised 20.0 ppm of the derivative (hydrochloride), colistin sulfate serially diluted)?
The value was 0.25 ppm.

And the “In vitro minimum inhibitory concentration (MIC) of the substance alone” value ([12]; E. coli 3H-4, colistin sulfate-resistant, substance alone, derivatives as hydrochlorides)?
Its value is greater than 800 ppm.

And the “In vitro MIC of colistin sulfate in the presence of the substituted benzylideneguanidine derivative” value ([12]; E. coli 3H-4, resistant, culture comprised 20.0 ppm of the derivative (hydrochloride))?
The value was 0.5 ppm.

What about the “In vitro minimum inhibitory concentration (MIC) of the substance alone” value ([13]; E. coli 2G-7, colistin sulfate-resistant, substance alone, derivatives as hydrochlorides) of the same molecule?
Its value is greater than 800 ppm.

And the “In vitro MIC of colistin sulfate in the presence of the substituted benzylideneguanidine derivative” value ([13]; E. coli 2G-7, resistant, culture comprised 20.0 ppm of the derivative (hydrochloride))?
The value was 1.0 ppm.

And the “In vitro minimum inhibitory concentration (MIC) of the substance alone” value ([14]; E. coli 4D-6, colistin sulfate-resistant, substance alone, derivatives as hydrochlorides)?
The value was greater than 800 ppm.

What about the “In vitro MIC of colistin sulfate in the presence of the substituted benzylideneguanidine derivative” value ([14]; E. coli 4D-6, resistant, culture comprised 20.0 ppm of the derivative (hydrochloride)) of the same molecule?
Its value is 2.0 ppm.

What about the “In vitro MIC … of compound 3” value ([15]; 5 ppm compound 3) of the same molecule?
The value was 32.00 ppm.

What about the “In vitro MIC … of compound 3” value ([15]; 10 ppm compound 3) of the same molecule?
The value was 8.00 ppm.

And the “In vitro MIC … of compound 3” value ([15]; 20 ppm compound 3)?
Its value is 1.00 ppm.

What about the “In vitro MIC … of compound 3” value ([15]; 40 ppm compound 3) of the same molecule?
The value was 1.00 ppm.

And the “In vitro MIC … of compound 3” value ([15]; 80 ppm compound 3)?
Its value is 0.50 ppm.

What about the “In vitro MIC of the substance alone” value [15, 17] of the same molecule?
The value was greater than 800 ppm.

What about the “In vitro minimum inhibitory concentration (MIC) of the substance alone” value ([16]; E. coli 3B-24, colistin sulfate-susceptible, substance alone, derivatives as hydrochlorides) of the same molecule?
Its value is greater than 800 ppm.

What about the “In vitro MIC of colistin sulfate in the presence of the substituted benzylideneguanidine derivative” value ([16]; E. coli 3B-24, culture comprised 20.0 ppm of the derivative (hydrochloride), colistin sulfate serially diluted) of the same molecule?
Its value is 0.50 ppm.
